Results: US20030152637A1, “Local anesthetic, and method of use” (priority 2001, published 2003)

Columns and labels:
[1] = Moore et al. 1976; cited from earlier work
[2] = In-vitro release of bupivacaine, USP Apparatus 2 Paddle Method, pH 3.0; format: physicochemical
Procedure: The in-vitro dissolution range described above may be determined by subjecting the local anesthetic formulation to in-vitro conditions specified by the USP II Paddle Method, 100 RPM, 37 degrees Celsius, pH 3.0 in 900 ml of 10 mM sodium phosphate buffer.
The in-vitro release of bupivacaine from the microcapsules of Examples 1 and 2 was examined. Dissolution was performed by using USP Apparatus 2 Paddle Method <711>at 100 rpm at 37° C. A 80 mg±3 mg of sample, irrespective of microcapsules formulation, was employed per vessel containing 900 mL of 10 mM Sodium Phosphate Buffer, pH 3.0. The samples (clear solution) were withdrawn at preset time intervals and analyzed for bupivacaine base by HPLC. The HPLC conditions are:
(§1) The in-vitro release of bupivacaine from the microspheres of Examples 2 (batches 1-4), 2A, 3, and 4 was examined. Dissolution was performed by using USP Apparatus 2 Paddle Method at 100 rpm at 37° C. A 80 mg±3 mg of sample, irrespective of microsphere formulation, was employed per vessel containing 900 mL of 10 mM Sodium Phosphate Buffer, pH 3.0. The samples (clear solution) were withdrawn at preset time intervals and analyzed for bupivacaine base by HPLC.
as §1, with “2B” for “2 (batches 1-4), 2A, 3, and 4”, “Method <711>” for “Method”, “HPLC. The following 24 hour dissolution release rates in Table 7B are preferred release rates which were based on batches made in accordance with the formulation of Example 2B (10 Kg scale batches).” for “HPLC.”

## CCCCN1CCCCC1C(=O)Nc1c(C)cccc1C (stereo not drawn) [Bupivacaine base]
[1]
  plasma bupivacaine level at which systemic toxic reactions are believed to occur: 4000 ng/mL
[2]; 0.5 h
  In Vitro Release of Bupivacaine (Cumulative Release %): 96.5%
[2]; 1 h
  In Vitro Release of Bupivacaine (Cumulative Release %): 97.09%
[2]; 2 h
  In Vitro Release of Bupivacaine (Cumulative Release %): 97.035%
[2]; 3 h
  In Vitro Release of Bupivacaine (Cumulative Release %): 97.275%
[2]; 4 h
  In Vitro Release of Bupivacaine (Cumulative Release %): 97.665%
